Laboratory results taken from patent publication EP2272817A1, “PAI-1 INHIBITOR” (Institute of Medicinal Molecular Design, Inc., priority 2008, dated 2009).
Like-named read-outs stand apart in the source and are kept apart here.

How the values were obtained:
recombinant human PAI-1 [1] = target: T1, recombinant human PAI-1 (Homo sapiens, UniProt P05121); assay: biochemical
Rat AV Shunt Model = assay: Test Example 5: Anti-thrombotic Activity (Rat AV Shunt Model), thrombus weight; format: in vivo, Crlj: CD (SD) rats; conditions: orally for 4 days, male rats, n=5, average ± S.E., vehicle 72.7±2.7
Experimental: AV shunt model using 7-week old male Crlj: CD (SD) rats were prepared, and anti thrombotic activities when the compounds according to the present invention were administered orally were examined.
Required amount of the test compounds were weighed and suspended by adding 0.5 % CMC (carboxymethylcellulose)-Na solution little by little, and the solutions (10 mg/kg or 30 mg/kg solution) were prepared so that their final concentration became 2 mg/ml or 6 mg/ml using a graduated cylinder. 5 ml was prepared for 1 course.
To 7-week old Crlj: CD (SD) male rats, 5 ml/kg of vehicle (0.5 % CMC-Na solution) or 5 ml/kg of the administering solution of the test compound (10 mg/kg or 30 mg/kg) were administered orally for 4 days. The administration on the 4th day was carried out about 1 hour before the following perfusion start.
On the connected part where the silk thread was through, parafilm was wrapped around to avoid blood leakage. Rats were anesthetized with pentobarbital (50 mg/kg; intraperitoneally). Saline was filled in the above catheter, and each of the ends of the catheter was inserted in right carotid artery and […], respectively, and blood was circulated. 30 minutes later, the catheter was pinched with forceps to stop blood flow, and tube parts where the silk thread was through were cut and removed. The silk thread was carefully removed from the tubes, remaining wet weight was weighed after removing the liquid phase with filter paper, and further subtraction of the weight of the silk thread, gave the thrombus weight.
For the thrombus weight in each group, an average vale ± standard error (S.E.) was calculated. For the significance test between the vehicle administered group and the compound according to the present invention administered group, Dunnett's multiple comparison was carried out (significance level 5 %). For the test, the SAS System Release 8.2 (TS2MO) for Windows (Registered Trademark) (SAS Institute Inc.) and its coorperative system EXSAS Ver. 7.10 (Arm Systex Co. Ltd.) were employed.

recombinant human PAI-1 [2] = target: T1, recombinant human PAI-1; assay: Test Example 4: Human PAI-1 Inhibitory Activity (amount of PAI-1 bound to plate-coated one-chain tPA, ELISA); format: biochemical; design: purchased Molecular Innovations, Inc; conditions: human PAI-1 bound to tPA, read-out: Inhibition Rate of PAI-1 Activity (%); for inhibition at 0.3 µM: Compound Concentration 0.3µM; for inhibition at 1 µM: Compound Concentration 1µM; for inhibition at 3 µM: Compound Concentration 3µM
In short: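 Compound (final 0.1 to 3.0 µM, 0.2% DMSO) preincubated 15 min on ice with recombinant human PAI-1 (50 ng/ml) in phosphate buffer pH 6.6, then 60 min at room temperature on one-chain tPA-coated plates. Bound PAI-1 detected by anti-PAI-1 antibody, AP-labelled secondary and p-nitrophenyl phosphate at 405 nm; quantified against PAI-1 standard curve, inhibition relative to compound-free PAI-1.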

recombinant rat PAI-1 = target: T2, recombinant rat PAI-1 (Rattus norvegicus, UniProt P20961); assay: biochemical; conditions: read-out: Inhibition Rate of PAI-1 Activity (%)
T2 sequence (P20961 24-402): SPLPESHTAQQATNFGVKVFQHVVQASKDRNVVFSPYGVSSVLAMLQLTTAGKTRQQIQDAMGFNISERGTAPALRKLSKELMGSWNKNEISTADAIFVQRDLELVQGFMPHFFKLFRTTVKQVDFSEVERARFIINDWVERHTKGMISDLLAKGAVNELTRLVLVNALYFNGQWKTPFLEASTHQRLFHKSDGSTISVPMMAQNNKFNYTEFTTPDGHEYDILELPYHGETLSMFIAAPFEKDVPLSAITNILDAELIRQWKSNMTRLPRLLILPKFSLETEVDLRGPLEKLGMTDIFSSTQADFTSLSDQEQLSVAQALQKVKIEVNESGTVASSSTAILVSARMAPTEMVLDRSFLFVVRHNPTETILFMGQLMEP

recombinant human PAI-1 [3] = target: T1, recombinant human PAI-1; assay: Test Example 2: Human PAI-1 Inhibitory Activity (pH 7.4 HEPES buffer, 10 minutes incubation with two-chain tPA); format: biochemical; design: purchased Molecular Innovations, Inc; conditions: read-out: Inhibition Rate of PAI-1 Activity (%)
Experimental: 0.1 M HEPES, 0.1 M NaCl. 1 mM EDTA. 0.1 % Polyethylene glycol 8,000 (Hampton Research Corporation),
2 mM Dimethyldecylphoshine oxide [Apo-10] (Fluka Corporation)

[4] = read-out: Inhibition Rate of PAI-1 Activity (%), Compound Concentration 5µM
[5] = read-out: Inhibition Rate of PAI-1 Activity (%), Compound Concentration 10µM
[6] = read-out: Inhibition Rate of PAI-1 Activity (%)

T1 sequence (P05121 24-402): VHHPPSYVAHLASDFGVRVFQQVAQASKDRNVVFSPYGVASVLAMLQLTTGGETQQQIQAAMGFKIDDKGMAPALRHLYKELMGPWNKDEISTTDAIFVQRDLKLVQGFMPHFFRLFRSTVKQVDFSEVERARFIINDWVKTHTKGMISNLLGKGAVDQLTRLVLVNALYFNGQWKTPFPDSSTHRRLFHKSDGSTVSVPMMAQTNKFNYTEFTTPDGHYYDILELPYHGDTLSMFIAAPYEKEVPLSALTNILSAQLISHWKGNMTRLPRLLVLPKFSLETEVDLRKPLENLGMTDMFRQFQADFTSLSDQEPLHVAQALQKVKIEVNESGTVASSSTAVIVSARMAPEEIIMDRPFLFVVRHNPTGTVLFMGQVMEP

Compound | inhibition at 5 µM (recombinant human PAI-1 [1]; [4]) [%] | inhibition at 10 µM (recombinant human PAI-1 [1]; [5]) [%] | inhibition at 0.3 µM (recombinant human PAI-1 [2]) [%] | inhibition at 1 µM (recombinant human PAI-1 [2]) [%] | inhibition at 3 µM (recombinant human PAI-1 [2]) [%] | inhibition at 0.3 µM (recombinant rat PAI-1) [%] | inhibition at 1 µM (recombinant rat PAI-1) [%] | inhibition at 3 µM (recombinant rat PAI-1) [%] | inhibition at 10 µM (recombinant rat PAI-1) [%] | inhibition at 0.1 µM (recombinant human PAI-1 [3]) [%] | inhibition at 0.3 µM (recombinant human PAI-1 [3]) [%] | inhibition at 1 µM (recombinant human PAI-1 [3]) [%] | inhibition at 3 µM (recombinant human PAI-1 [3]) [%] | other results
CC(C)(C)c1ccc(CN(C(=O)C(=O)O)c2ccc(-c3ccc(OC(F)(F)F)cc3)cc2)cc1 [Compound 129] | 75 | 95 | 5 | 15 | 19 | 2 | 14 | 46 | 90 | 1 | 3 | 19 | 86 | Thrombus Weight (Rat AV Shunt Model; Dose 10 mg/kg/day): 56.7 ± 3.8 mg
CC(C)(C)c1ccc(COc2ccc(-c3ccc(OC(F)(F)F)cc3)cc2CCC(=O)O)cc1 [Compound 5] | – | – | 9 | 23 | 67 | 5 | 15 | 52 | 93 | 2 | 13 | 34 | 90 | inhibition at 5 µM (recombinant human PAI-1 [1]; read-out: Inhibition Rate of PAI Activity (%), Compound Concentration 5µM): 87%; inhibition at 10 µM (recombinant human PAI-1 [1]; read-out: Inhibition Rate of PAI Activity (%), Compound Concentration 10µM): 95%; Thrombus Weight (Rat AV Shunt Model; Dose 10 mg/kg/day): 57.5 ± 5.0 mg
CC(C)(C)c1ccc(Oc2cc(Oc3ccc(OC(F)(F)F)cc3)ccc2CCC(=O)O)cc1 [Compound 90] | – | – | 2 | 9 | 70 | 0 | 0 | 77 | 90 | 4 | 6 | 22 | 97 | inhibition at 5 µM (recombinant human PAI-1 [1]; [6]): 42%; inhibition at 10 µM (recombinant human PAI-1 [1]; [6]): 83%; inhibition at 25 µM (recombinant human PAI-1 [1]; [6]): 96%
CCC(CC)Oc1ccc(-c2ccc(OC(F)(F)F)cc2)cc1N(Cc1ccc(C(C)(C)C)cc1)C(=O)C(=O)O [Compound 199] | 83 | 89 | 18 | 41 | 73 | 0 | 35 | 97 | > 99 | 9 | 13 | 64 | > 99 | –
CC(C)(C)c1ccc(COc2cc(Oc3ccc(OC(F)(F)F)cc3)ccc2CCC(=O)O)cc1 [Compound 78] | 24 | 60 | 20 | 39 | 83 | 0 | 4 | 71 | 90 | 0 | 4 | 21 | 96 | inhibition at 25 µM (recombinant human PAI-1 [1]; read-out: Inhibition Rate of PAI-1 Activity (%), Compound Concentration 25µM): 98%
CC(C)(C)c1ccc(Oc2cc(-c3ccc(OC(F)(F)F)cc3)ccc2OCC(=O)O)cc1 [Compound 112] | – | – | 0 | 6 | 36 | 0 | 14 | 75 | 96 | 0 | 19 | 56 | > 99 | inhibition at 5 µM (recombinant human PAI-1 [1]; [6]): 34%; inhibition at 10 µM (recombinant human PAI-1 [1]; [6]): 82%; inhibition at 25 µM (recombinant human PAI-1 [1]; [6]): 95%
CN(C(=O)C(=O)O)c1cc(-c2ccc(OC(F)(F)F)cc2)ccc1OCc1ccc(C(C)(C)C)cc1 [Compound 17] | – | – | – | – | – | – | – | – | – | – | – | – | – | Thrombus Weight (Rat AV Shunt Model; Dose 30 mg/kg/day): 60.4 ± 3.8 mg
CCCCCOc1ccc(-c2ccc(OC(F)(F)F)cc2)cc1N(Cc1ccc(C(C)(C)C)cc1)C(=O)C(=O)O [Compound 194] | 84 | 84 | 6 | 22 | 56 | 5 | 39 | 98 | > 99 | 0 | 7 | 63 | 98 | –
